From patent US11813249B2, “Combination therapy for treatment of restenosis” (Mercator MedSystems, Inc., priority 2017, dated 2023)
“Also recorded” adds a separate entry of the source.

How the values were obtained:
in vivo = experiment: in vivo
Text: Overview: The purpose of this study was to evaluate the safety and pharmokinetic profile of Torisel® and dexamethasone when delivered in an exaggerated dose to peripheral vasculature in a porcine model of balloon overstretch artery stenosis.
Methods: Four juvenile porcine subjects were used on this study to assess tissue safety and pharmacokinetic profile. The animals received femoral artery injury induced via oversizing a balloon (˜20-30% overstretch). Three animals received subsequent treatment with the Bullfrog® catheter of Torisel® (2 mg/mL) with dexamethasone (6 mg/mL) and contrast medium (20%) into the adventitia and perivascular tissue around the peripheral arteries. The fourth animal received subsequent treatment with the Bullfrog® catheter of saline and contrast medium (20%) into the adventitia and perivascular tissue around the peripheral arteries. Blood samples were taken at baseline, and post-implant 20 minutes, 1 hour, 4 hours, 24 hours, 3 days, 7 days, and just prior to termination for pharmacokinetic assessment. […] The other three animals were survived for 14 days. At day 14, blood was collected, animals were euthanized and a necropsy was performed.

human aortic VSMCs [1] = experiment: Apoptosis by Caspase 3 ELISA in drug-treated VSMCs; conditions: 12 hours; for apoptosis (Caspase 3 activation): increasing drug concentrations, with or without 50 nM dexamethasone, FIG. 17A-C
Method: At harvest, cells were gently lysed and a Caspase 3 ELISA was performed (Cell Signaling Technologies, Cat #7190). Absorbance readings were taken using a microtiter plate reader (Tecan). […] Data represent the average of 9 replicate wells per condition and error bars represent the standard deviation of the 9 replicates. Baseline levels of VSMC apoptosis were obtained using vehicle controls and values were set to zero. The percent change in apoptosis in the presence of drug was determined from baseline (FIG. 17A-C).
Cells were then incubated for 12 hours. At harvest, plates were centrifuged at 800 rpm in a clinical centrifuge, and supernatant was carefully removed. Cells were then fixed and permeabilized and assayed for cytoplasmic caspase 3 levels by ELISA, according to manufacturer instructions (Cell Signaling Technologies). Absorbance readings were taken using a microtiter plate reader (Tecan). Data represent the average absorbance readings. Error bars represent the standard deviation amongst replicates.

human aortic VSMCs [2] = conditions: 12 hours; for LDH release (necrosis and cytolysis): increasing drug concentrations, with or without 50 nM dexamethasone, FIG. 18A-C; for necrotic cytotoxicity (LDH): single drug or 500 nM TEM or PAC with DEX 10, 50, 500 nM, FIG. 19C
Method: At harvest, plates were centrifuged at 800 rpm in a clinical centrifuge, and supernatant was carefully removed and assayed for lysed cells by measuring the LDH released into the culture media by ELISA, according to manufacturer instructions. Absorbance readings were taken using a microtiter plate reader (Tecan). […] Data in FIG. 18A represent the LDH release in the presence of increasing concentrations of sirolimus or sirolimus+50 nM dexamethasone. […] Data represent the average of 9 replicate wells per condition and error bars represent the standard deviation of the 9 replicates.
Treated cells were then incubated for 12 hours. At harvest, plates were centrifuged at 800 rpm in a clinical centrifuge, and supernatant was carefully removed and assayed for LDH by ELISA according to manufacturer instructions. Absorbance readings were taken using a microtiter plate reader (Tecan). Data represent the average absorbance readings. Error bars represent the standard deviation amongst replicates.

[3] = tested on: IL6 cytokine production of human aortic VSMCs; experiment: IL6 ELISA of supernatant of PDGF-stimulated VSMCs; type: cell-based; conditions: for PDGF-induced IL6 levels: 48 h, single drug 0, 10, 50, 500 nM, or 500 nM TEM or PAC with DEX 10, 50, 500 nM, FIG. 19D
Method: (§1) Following a 48 hour incubation in the presence of drug and stimulant (PDGF), 50 uL of supernatant from each well was collected and ELISAs were performed to measure IL6 levels. Pro-inflammatory cytokine expression was examined under these conditions by measuring IL6 levels in cell supernatant after 48 h by enzyme-linked immunoassay (ELISA; Peprotech #900-T16, #900-T25).

human aortic VSMCs [4] = experiment: MTT metabolic activity / proliferation of PDGF-stimulated VSMCs; type: cell-based; conditions: PDGF 10 ng/mL; for inhibitory activity in the MTT assay: Example 11, 1 nM to 100 μM for 12 hours; for inhibition of metabolic activity and proliferation (MTT assay): drug 0, 1, 10, 100, 500 nM, with or without 50 nM dexamethasone, FIGS. 14A-C
Method: Drug-specific effects on cellular metabolic activity, pro-inflammatory cytokine production and cytotoxicity were examined. As a cytotoxic control for disruption of metabolic activity, we used actinomycin D (100 ng/mL or […]). As a negative control, vehicle (5% (v/v) sterile DMSO in saline) was used. Following an 8 hour incubation in the presence of drug and stim (PDGF), MTT substrate was added and incubated for an additional 4 hrs prior to measurement. […] Data represent the average absorbance readings.
After 8 h incubation, MTT substrate was added and incubated for an additional 4 hrs prior to measurement (T=12 hours). […] Data represent the average absorbance readings. […] FIG. 19A presents the percent of inhibition that was identified in the presence of single or combination drugs. Low doses of all drugs, administered individually, had minimal inhibitory properties, as compared to high dose of each drug.
(§2) A study was performed to assess the ability of a range of drug or drug combinations to induce cytotoxicity in PDGF-stimulated aortic smooth muscle and endothelial cells in vitro. […] Utilizing protocols for EC and VSMC stimulation mediated by the growth factor, PDGF, cells were incubated in drug at concentration ranges from 0, 1, 10, 100 nM, 1, 10, 100 μM for 12 hours prior to assessment for cellular activation and cytotoxicity. Prior to harvest, BrdU was added to each well for 6 hours for DNA incorporation. […] Data represent the average absorbance readings. […] Cellular activation was monitored by metabolic activity and cellular proliferation. Metabolic activity was measured using the MTT assay to monitor enzyme-dependent metabolite production while proliferation was measured using 5-bromo-2′-deoxyuridine (BrdU) ELISA to monitor DNA synthesis.

[5] = tested on: TNFα production of human aortic VSMCs; experiment: TNFα ELISA of supernatant of PDGF-stimulated VSMCs; type: cell-based; conditions: for PDGF-induced TNFα levels: 48 h, single drug 0, 10, 50, 500 nM, or 500 nM TEM or PAC with DEX 10, 50, 500 nM, FIG. 19E
Method: as §1, with “TNFα” for “IL6”

human aortic VSMCs [6] = experiment: BrdU ELISA proliferation of PDGF-stimulated VSMCs; type: cell-based; conditions: Example 11; 1 nM to 100 μM for 12 hours; PDGF 10 ng/mL; compared to vehicle control and actinomycin D; FIG. 20
Method: as §2

[7] = Example 13 porcine study: blood and tissue pharmacokinetics
Method: (§3) Methods. Twelve animals were evaluated for tissue safety and pharmacokinetic blood and tissue profiles. The animals received vessel injury induced via oversizing a balloon at ˜20-30% overstretch, then receiving subsequent Bullfrog® catheter delivery of 4 mg/mL Torisel® or saline placebo control into the adventitia and perivascular tissue around the coronary and femoral arteries. Blood samples for pharmacokinetic analysis were taken at 5 minutes, 30 minutes, 1 hour, 24 hours, 72 hours, 7 Days, 28 Days, and termination. Animals were terminated at 90 days. Gross examination of all treated tissues and surrounding structures was performed. […] Histological analysis was performed on all other collected arterial tissues.

external iliac arteries = experiment: Example 15 WHHL rabbit model of balloon overstretch artery stenosis: histopathology; type: in vivo, Watanabe heritable hyperlipidemic (WHHL) rabbit; conditions: relative to dexamethasone alone or vehicle group
Method: Overview. A rabbit study was performed to evaluate the tissue effect of Torisel® (Tem) and dexamethasone (Dex) when delivered as combined or alone to peripheral vasculature in a Watanabe heritable hyperlipidemic (WHHL) rabbit model of balloon overstretch artery stenosis. Each animal was subject to balloon angioplasty and treatment in each of the two (2) external iliac arteries. Four subjects were assigned to each of three groups: Torisel®, dexamethasone, or combination. Three subjects were assigned to each of two groups: control (vehicle delivery) or balloon only. Two New Zealand white rabbits were assigned to treatment with balloon only in one iliac and were naïve to any treatment in the other iliac.
Methods. Twenty animals were evaluated for tissue effect of peri-vascular injection of test and control articles. […] The animals received vessel injury induced via oversizing a balloon (˜20-30% overstretch). Animals were divided into the six groups with varying balloon injury targets and various combinations of test and control articles. The test and control articles were injected into the peri-vascular tissue using the Bullfrog® catheter. Animals were recovered and survived for ˜28 days. At ˜28 days, animals were sacrificed, a gross pathology performed and tissue harvested for histopathology analysis.

[8] = dosage of 4 mg/mL temsirolimus
Method: as §3

[9] = set-up: species or system swine; conditions: pig, in vivo
Method: The study design included a total of eleven (11) animals; 8 of which received angioplasty overstretch followed by single dose of test article in bilateral superficial femoral arteries administered for a total in-life phase of 1 hour (n=2), 3 days (n=2), 7 days (n=2) and 28 days (n=2) and three additional animals that served as control by undergoing angioplasty overstretch followed by infusion of saline and surviving for 3 days (n=1), 7 days (n=1) and 28 days (n=1). A carotid artery access was utilized for all interventional procedures. […] Animals survived to 1 hour (n=2), 3 days (n=2), 7 days (n=2) and 28 days (n=2), for detailed histopathology and safety evaluation. Following survival to the designated endpoint, animals underwent blood collection, then were euthanized and necropsied followed by histological examination.
A prospective study of a single dose (357 μg in 1.5 ml) of adventitially delivered study drug (Torisel®) was conducted. All doses contained 50% contrast medium for distribution tracking. Each pig received bilateral injections in the mid femoral region. 2 pigs each were sacrificed at 1 hour, 3 days, 7 days and 28 days, for a total of 8 pigs. […] 3 pigs were used as control in which treatment sites were subjected to overstretch injury followed by infusion of saline via the Mercator Bullfrog® catheter and sacrificed at 3 days, 7 days or 28 days (1 pig at each time point). […]

C[C@@H]1C[C@H]2[C@@H]3CCC4=CC(=O)C=C[C@]4(C)[C@@]3(F)[C@@H](O)C[C@]2(C)[C@@]1(O)C(=O)CO [dexamethasone]
dexamethasone levels in plasma at the 24-hour time point and after (in vivo; pig, in vivo): below LLOQ | tissue levels at 14 days (in vivo; pig, in vivo): below LLOQ | apoptosis (Caspase 3 activation) (human aortic VSMCs [1]): did not induce significant apoptosis | LDH release (necrosis and cytolysis) (human aortic VSMCs [2]): suppressed LDH release compared to vehicle | necrotic cytotoxicity (LDH) (human aortic VSMCs [2]): not observed

CC(=O)O[C@H]1C(=O)[C@@]2(C)[C@H]([C@H](OC(=O)c3ccccc3)[C@]3(O)C[C@H](OC(=O)[C@H](O)[C@@H](NC(=O)c4ccccc4)c4ccccc4)C(C)=C1C3(C)C)[C@]1(OC(C)=O)CO[C@@H]1C[C@@H]2O [paclitaxel]
PDGF-induced IL6 levels [3]: dose-dependent upregulation | IL6 production ([3]; 48 hour incubation, increasing drug concentrations, with or without 50 nM dexamethasone, FIGS. 16A-C): induced IL6 and TNFα production by SMCs at all doses tested; also recorded: no significant change in IL6 levels between 50 and 500 nM | average increase in apoptosis from vehicle baseline (human aortic VSMCs [1]; Caspase 3 ELISA, vehicle baseline set to zero): ≤ 173% | apoptosis (Caspase 3 activation) (human aortic VSMCs [1]): induced in a dose-dependent manner | apoptosis (cytoplasmic caspase 3) compared to vehicle control (human aortic VSMCs [1]; single drug or 500 nM TEM or PAC with DEX 10, 50, 500 nM, FIG. 19B): promote apoptosis (lack of inhibition) | inhibitory activity in the MTT assay (human aortic VSMCs [4]): at higher concentrations had inhibitory activity | inhibition of metabolic activity and proliferation (MTT assay) (human aortic VSMCs [4]): at higher concentrations had inhibitory activity | PDGF-induced TNFα levels [5]: dose-dependent upregulation | TNFα production ([5]; 48 hour incubation, increasing drug concentrations, with or without 50 nM dexamethasone, FIGS. 15A-C): activated pro-inflammatory cytokine expression; also recorded: induced IL6 and TNFα production by SMCs at all doses tested; also recorded: increased steadily | inhibition of BrdU incorporation (cellular proliferation) (human aortic VSMCs [6]): approached the degree of inhibition of actinomycin D | LDH release (necrosis and cytolysis) (human aortic VSMCs [2]): dose-dependent relationship | necrotic cytotoxicity (LDH) (human aortic VSMCs [2]): demonstrated necrotic cytotoxicity

CO[C@H]1C[C@@H]2CC[C@@H](C)[C@@](O)(O2)C(=O)C(=O)N2CCCC[C@H]2C(=O)O[C@H]([C@H](C)C[C@@H]2CC[C@@H](O)[C@H](OC)C2)CC(=O)[C@H](C)/C=C(\C)[C@@H](O)[C@@H](OC)C(=O)[C@H](C)C[C@H](C)/C=C/C=C/C=C/1C [sirolimus]
relation of observed blood concentrations to dose ([7]; 52 mg versus 5.2 mg Torisel): proportional to dose | homogenized vascular tissue levels ([7]; termination at 90 days): all below LLOQ | whole blood levels at 28 days and at termination ([7]; termination at 90 days): below LLOQ | whole blood levels, time course ([7]; up to 52 mg or 5.2 mg Torisel, perivascular, coronary and peripheral arteries): peaked at early time points, declined over time to Day 7

CO[C@H]1C[C@@H]2CC[C@@H](C)[C@@](O)(O2)C(=O)C(=O)N2CCCC[C@H]2C(=O)O[C@H]([C@H](C)C[C@@H]2CC[C@@H](OC(=O)C(C)(CO)CO)[C@H](OC)C2)CC(=O)[C@H](C)/C=C(\C)[C@@H](O)[C@@H](OC)C(=O)[C@H](C)C[C@H](C)/C=C/C=C/C=C/1C [temsirolimus]
PDGF-induced IL6 levels [3]: dose-dependent reduction | % HHF-35 positive intimal/medial area (marker of vascular smooth muscle cell viability) (external iliac arteries): smaller | temsirolimus levels in the blood, time course (in vivo; Torisel 2 mg/mL with dexamethasone 6 mg/mL, perivascular, peripheral arteries): peaked at early time points, declined over time to 7 days | temsirolimus levels in the blood at termination (in vivo; day 14): below the lower limit of quantitation (LLOQ) | level in homogenized vascular tissue at term (in vivo; day 14, one value per test animal): 97.5 ng/g | level in vascular tissue at term, molar equivalent (in vivo; day 14, printed as equivalent): 94.7 nM | concentration at 14 days (in vivo; pig, in vivo, level in homogenized vascular tissue at term, day 14, one value per test animal): 50.3 ng/g | concentration at 14 days (in vivo; pig, in vivo, level in vascular tissue at term, molar equivalent, day 14, printed as equivalent): 48.8 nM | relation of observed blood concentrations to dose ([7]; pig, in vivo): proportional to dose | whole blood levels at 28 days and at termination ([7]; pig, in vivo): below LLOQ | mineralization in tissues [8]: not previously seen | inhibitory activity in the MTT assay (human aortic VSMCs [4]): at higher concentrations had inhibitory activity | inhibition of metabolic activity and proliferation (MTT assay) (human aortic VSMCs [4]): at higher concentrations had inhibitory activity | PDGF-induced TNFα levels [5]: dose-dependent reduction | inhibition of BrdU incorporation (cellular proliferation) (human aortic VSMCs [6]): approached the degree of inhibition of actinomycin D | time post-dosing up to which drug was measured in the local vascular tissue [9]: up to 28 days
